Columns and labels:
Format in all cases: cell-based
SK-N-MC cells = experiment: Protective effect when tBHP was treated on brain cells (LDH assay); conditions: Homo sapiens, tBHP 400 uM, 6 h
Experimental: In order to assess the protective effect on brain cells, 2×10^4 brain cells were distributed into the 96-well plate using DMEM media (Gibco, 10% FBS), and incubated for 24 h. The Example compounds were serially diluted by 3-fold to the final concentration of 30, 10, 3, 1, 0.3, 0.1 uM, by which each well was treated for 1 h. Cells were treated with tBHP at the final concentration of 400 uM, and incubated for 6 h. 50 uL of media was taken from each well to proceed with LDH assay (Promega). In LDH assay, 50 uL of media was mixed with 50 uL of assay solution. After the reaction for 30 min at room temperature, absorbance was measured at 490 nm using SpectraMax (Molecular Device).

[1] = tested on: primary hepatocytes isolated from rats; experiment: Cell protective effects against doxorubicin in hepatocytes (WST-1 cell viability); conditions: Hepatocyte; primary rat hepatocytes pretreated with compound for 30 min, then doxorubicin; viability by WST-1 after 24-48 h
Summary of the method: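 Rat primary hepatocytes from two-step collagenase perfusion were pretreated for 30 min with compound: 5-step 2- or 3-fold series from 30, 10 or 1 µM, 0.2% DMSO. Doxorubicin or another hepatotoxicant (e.g., CCl4, acetaminophen, H2O2) was then added. Viability after 24–48 h was read by WST-1 (A440), and EC50 was taken as half-maximal protection.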

[2] = tested on: primary hepatocytes isolated from rats; experiment: Hepatocyte protective effect against substances deriving hepatocyte toxicity (WST-1 cell viability); conditions: for EC50: Rattus norvegicus, Hepatocyte, viability after 24-48 h, WST-1; for viability: primary rat hepatocytes
Experimental: Various endogenous/exogenous attacks on the cells trigger the mechanisms of cell death which is broadly classified into two types, i.e. apoptosis or necrosis. Using these cell death mechanisms, in the present experimental example, primacy hepatocytes isolated from rats were treated with drugs which were clinically shown to result in serious side-effects of hepatocyte toxicity or various chemicals which derive cell death, and the compounds synthesized in the Examples were estimated for their hepatocyte protective effects, after 24-48 h. The substances used to derive hepatocyte death include CCl4, ActD, H2O2, doxorubicin, anti-Fas Ab/Actinomycin D, acetaminophen, EtOH, CdCl2, palmitate, stearate, cyclophosphamide, terfenadine, diclofenac, simvastatin, and adefovir. Primary hepatocytes were isolated using the method of Seglen P O (Experimental Cell Research 74 (1972) pp 450-454). Briefly, hepatocytes were isolated according to the two-step collagenase perfusion method, and dead cells were removed by low speed (500 rpm) centrifugation for 10 min using percoll gradient (Kreamer B L etc, In Vitro Cellular & Developmental Biology 22 (1986) pp 201-211). During this step, the viability of cells was maintained 90% or above. The cells were suspended in HepatoZYME media (Gibco BRL), and the number of cells was counted. 1.5×10^4 cells in 100 μl were placed into the collagen-coated 96-well plate (BD biocoat), and adhered on the bottom for 3-4 h.
In order to assess the hepatocyte protective effect, above adhered cells were pretreated with the Example compounds for 30 min. […] 30 min after the treatment by compounds, cells were treated by the substances deriving hepatocyte death or hepatotoxic drugs at the concentrations indicated in Table 1. After 24-48 h, the viability of cells was determined to estimate the hepatocyte protective effects. The viability of cells was determined using WST-1 (MK-400, […]) method by the absorbance at 440 nm. Hepatocyte protective effects of the Example compounds were represented by “EC50” which was calculated from measured values. “EC50” herein means the concentration of the compound at which 50% of maximum protective effect is observed in the experiment.

Linm5F cells = experiment: Protective effect when tBHP was treated on pancreatic cells (SRB method); conditions: Pancreatic beta cell, tBHP 400 uM, 5 h
Experimental: (§1) In order to determine the protective effect on pancreatic cells, Linm5F cells, a sort of the beta cells, were distributed into the 96-well plate in the amount of 2×10^4 cells/well, and incubated for 24 h. The Example compounds were serially diluted by 3-fold to the final concentration of 30, 10, 3, 1, 0.3, 0.1 uM, by which each well was treated for 1 h. Cells were treated with tBHP at the final concentration of 400 uM, and further incubated for 5 h. Protective effects were determined using SRB (Sulforhodamine B Protein) method in which total amount of cellular protein is stained. Briefly, cells were incubated for 5 h, 50 uL of 4% formaldehyde solution was added to each well to fix the cells, and stored for about 30 min at room temperature. After discarding the media, each well was washed with distilled water 2-3 times, and the plate was dried in an oven at 50°. 50 uL of SRB solution was added to each well, and placed for about 30 min at room temperature. After removing SRB solution, the plate was washed with 1% acetic acid solution 2-3 times. After drying the plate in an oven at 50°, 100 uL of 10 mM Tris was added to elute SRB which was staining the intracellular protein.

H9C2 cells = experiment: Protective effect when tBHP was treated on cardiac cells (SRB method); conditions: Rattus norvegicus, tBHP 400 uM, 2 h, H9C2 cardiomyocytes
Experimental: as §1, with “After drying the plate in an oven at 50°, 100 uL of 10 mM Tris was added to elute SRB which was staining the intracellular protein.” left out
In order to assess the protective effect on cardiac cells, H9C2 cells were distributed in the amount of 1.5×10^4 cells/well, and incubated for 24 h. […] Protective effect of each compound was determined using the same SRB method as in Linm5F of above mentioned 2).

| SMILES | EC50 (SK-N-MC cells) [nM] | EC50 [1] [nM] | EC50 ([2]; simvastatin 16 μM) [nM] | EC50 ([2]; terfenadine 10 μM) [nM] | viability ([2]; adefovir 100 μM, compound at 3-30 uM) [%] | viability ([2]; diclofenac 350 μM, compound at 3-100 uM) [%] | EC50 (Linm5F cells) [nM] | EC50 (H9C2 cells) [nM] |
| --- | --- | --- | --- | --- | --- | --- | --- | --- |
| O=C(O)C[C@@H]1CSC(c2cc3cc(Cl)cc(NC4CCCC4)c3[nH]2)=N1 [Example 4, [(R)-2-(5-chloro-7-cyclopentylamino-1H-indol-2-yl)-4,5-dihydro-thiazol-4-yl]-acetic acid] | ≤ 100 | 300 | < 10000 | 400 | 50 | 40 | – | – |
| O=C(O)C[C@H]1CSC(c2cc3cccc(NC4CCCC4)c3[nH]2)=N1 [Example 14, [(S)-2-(7-cyclopentylamino-1H-indol-2-yl)-4,5-dihydro-thiazol-4-yl]-acetic acid] | – | 190 | – | – | – | – | 150 | – |
| Cc1cc(NCC2CCOCC2)c2[nH]c(C3=N[C@@H](CC(=O)O)CS3)cc2c1 [Example 22, [(S)-2-(5-methyl-7-(tetrahydropyran-4-yl)methylamino-1H-indol-2-yl)-4,5-dihydro-thiazol-4-yl]-acetic acid] | – | 250 | – | – | – | – | 200 | 170 |
| O=C(O)C[C@@H]1CSC(c2cc3cc(Oc4ccccc4)cc(NC4CCCC4)c3[nH]2)=N1 [Example 85, [(R)-2-(5-phenoxy-7-cyclopentylamino-1H-indol-2-yl)-4,5-dihydro-thiazol-4-yl]-acetic acid] | – | 400 | – | – | – | – | – | 700 |

Reference: patent US8222414B2, “Indole compounds as an inhibitor of cellular necrosis” (LG Life Sciences Ltd., priority 2007, dated 2012)
